In patent publication US20260335305A1, “METHODS OF USING ITRACONAZOLE DRY POWDERS” (Pulmatrix Operating Company, Inc., priority 2022, published 2026):
Like-named read-outs stand apart in the source and are kept apart here.

Tests used:
CYP3A4 = settings: role: inhibitor; unbound Ki, Simcyp V19 file; cited from earlier work
[1] = cited from earlier work; for RB / fu: Simcyp V19 file
[2] = single inhaled dose of 20 mg of dry powder; cited from earlier work
[3] = Itraconazole subparticle size of milled suspension; type: physicochemical; settings: water and polysorbate 80, milled at 1800 rpm for one hour
Description: Particle Size Reduction using Low Energy Wet Milling. One technique for reducing the particle size of the itraconazole was via low energy wet milling (also known as roller milling, or jar milling). Suspensions of the itraconazole were prepared in an anti-solvent, which can be water, or any solvent in which the active agent is not appreciably soluble. Stabilizers, which can be, but are not limited to, non-ionic surfactants or amphiphilic polymers, are then added to the suspension along with milling media, which can be, but are not limited to, spherical with high wear resistance and in the size range from 0.03 to 0.70 millimeters in diameter. The vessels containing the suspensions are then rotated using a jar mill (US Stoneware, East Palestine, OH USA) while taking samples periodically to assess particle size (LA-950, HORIBA, Kyoto, Japan).
Particle Size Reduction using High Energy Wet Milling: Another technique for reducing the particle size of the itraconazole was via high-energy wet milling using a rotor-stator, or agitated media mill. Suspensions of the itraconazole were prepared in an anti-solvent, which can be water, or any solvent in which the active agent is not appreciably soluble. […]

[4] = cited from earlier work; for AUC0-24 h / Accumulation ratio AUC0-24 h / Accumulation ratio Cmax / Cmax / Kel / Tmax: inhaled Formulation I
[5] = Day 1, 35 mg inhaled Formulation I QD
[6] = Day 14, 35 mg inhaled Formulation I QD

Row | Compound | Ki, u, ITZ (CYP3A4) [nM] | RB [1] | fu [1] | AUC0-24 h, observed mean [4, 5] [ng·h/mL] | Cmax, observed mean [4, 5] [ng/mL] | AUC0-24 h, observed mean [4, 6] [ng·h/mL] | Cmax, observed mean [4, 6] [ng/mL] | AUC0-24 h ([4]; 10 mg) | Accumulation ratio AUC0-24 h ([4]; 10 mg) | Accumulation ratio Cmax ([4]; 10 mg) | Cmax ([4]; 10 mg) | Kel ([4]; 10 mg) [h⁻¹] | Tmax ([4]; 10 mg) [h] | AUC0-24 h ([4]; 20 mg) | Accumulation ratio AUC0-24 h ([4]; 20 mg) | Accumulation ratio Cmax ([4]; 20 mg) | Cmax ([4]; 20 mg) | Kel ([4]; 20 mg) [h⁻¹] | Tmax ([4]; 20 mg) [h] | AUC0-24 h ([4]; 35 mg QD for 14 days) | other results
1 | CCC(C)n1ncn(-c2ccc(N3CCN(c4ccc(OCC5COC(Cn6cncn6)(c6ccc(Cl)cc6Cl)O5)cc4)CC3)cc2)c1=O (centres unmarked) [Itraconazole, itraconazole] | […] | […] | […] | […] | 5.23 | […] | 15.2 | […] | […] | […] | […] | […] | […] | […] | […] | […] | […] | […] | […] | […] | lung exposure [2]: lung exposures that would be considered therapeutic; final median particle size (Dv(50)) of the milled suspension [3]: […]; Accumulation ratio AUC0-24 h ([4]; 35 mg QD for 14 days): […]; Accumulation ratio Cmax ([4]; 35 mg QD for 14 days): […]; Cmax ([4]; 35 mg QD for 14 days): 15.2 (49.3) ng/mL; Kel ([4]; 35 mg QD for 14 days): […]; Tmax ([4]; 35 mg QD for 14 days): […]
2 | Cc1ncc2n1-c1ccc(Cl)cc1C(c1ccccc1F)=NC2 [Midazolam, midazolam] |  |  |  |  |  |  |  |  |  |  |  |  |  |  |  |  |  |  |  |  | fm ([1]; Simcyp V19 Midazolam File): 0.84
3 | CC(O)C(C)n1ncn(-c2ccc(N3CCN(c4ccc(OCC5COC(Cn6cncn6)(c6ccc(Cl)cc6Cl)O5)cc4)CC3)cc2)c1=O (centres unmarked) [OH-itraconazole] | 2.3 | 0.58 | 0.016 | 38.2 | 2.10 | 168 | 8.68 | 42.4 (26.1) ng h/mL | 3.8 | 3.5 | 2.25 (25.3) ng/mL | 0.0263 | 6 | 128 (56.1) ng h/mL | 4.4 | 4.2 | 6.43 (54.7) ng/mL | 0.0223 | 6 | 169 (116) ng h/mL | Accumulation ratio AUC0-24 h ([4]; 35 mg QD for 14 days): 4.5; Accumulation ratio Cmax ([4]; 35 mg QD for 14 days): 4.2; Cmax ([4]; 35 mg QD for 14 days): 8.68 (91.0) ng/mL; Kel ([4]; 35 mg QD for 14 days): 0.0248 h⁻¹; Tmax ([4]; 35 mg QD for 14 days): 8 h
